Measured values reported in US8853424B2 (Japan Science and Technology Agency, priority 2008, dated 2014).

Columns and labels:
transglutaminase (TGase) = assay: Measurement of TG (TGase inhibitory activity, monodansyl cadaverine / N,N-dimethylcasein fluorescence, FDSS 3000); type: biochemical
How it was run: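 Compound (1 μL of 10 mM stock) added to 0.1 mL reaction: 100 mM HEPES-NaOH pH 7.5, 1 mM CaCl2, 20 μM monodansyl cadaverine, 0.05 mg/mL N,N-dimethylcasein, 5 μg/mL TGase. Rate of fluorescence change at 340 nm measured; DMSO control set to 100; TG50 is the concentration halving activity.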

[1] = system: Truncated N-terminal huntington 150 Q-EGFP-Neuron 2a cells; assay: Measurement of x-Fold (polyglutamine aggregation inhibitory activity); type: cell-based
Description: In the present invention, the polyglutamine aggregation inhibitory activity (x-Fold) can be measured, for example, by the method described in the Example.
The number of the aggregated cells, and the total number of cells were counted by Array Scan V T1 (manufactured by Cellomics, Pittuburg, USA), and the ratio of the aggregated cells to the total number of cells was determined (x-Fold). […]

[2] = TGase activity with compound (10 mM, 1 μL in 0.1 ml enzyme reaction solution), DMSO control taken as 100
[3] = TGase inhibitory activity value, Table 1
[4] = polyglutamine aggregation inhibitory activity, Table 1
[5] = ratio of aggregated cells to total number of cells, compound 20 μM, 20 hr, almost 1 without compound, smaller = stronger inhibition
[6] = TGase inhibitory activity measurement, unit not given
[7] = polyglutamine aggregation, Truncated N-terminal huntington 150 Q-EGFP-Neuron 2a cells

Compound | TGase activity remaining (% of DMSO control = 100) (transglutaminase (TGase); [2]) | TGase activity remaining (% of DMSO control = 100) (transglutaminase (TGase); [3]) | x-Fold [1, 4] | x-Fold [1, 5] | also measured
OB(c1cc(Cl)ccc1F)c1cc(Cl)ccc1F [Example 98, bis(3-chloro-6-fluorophenyl)borinic acid] | 111 | 111 | 0.95 | 0.95 | –
di(3-chloro-6-methyl-phenyl)(argininate-O,N)borane [Example 156] | 91 | 91 | 1.08 | 1.08 | –
NCCCC(N)C(=O)OB(c1ccccc1)c1ccccc1 (stereo not drawn) [Example 179, diphenyl(2,5-diaminopentanate-O,N)borane] | 127 | – | – | 0.99 | TGase activity remaining (% of DMSO control = 100) (transglutaminase (TGase); TGase inhibitory activity value, Table 1, listed as 2044): 127; x-Fold ([1]; polyglutamine aggregation inhibitory activity, Table 1, listed as 2044): 0.99
c1ccc(B(ON2CCCCC2)c2cccc(Oc3cccc(B(ON4CCCCC4)c4ccccc4)c3)c2)cc1 [Example 195, di(phenyl 3-piperidinooxyborylphenyl)ether] | 115 | 115 | 0.77 | 0.77 | –
OB(c1ccc(Cl)cc1F)c1ccc(Cl)cc1F [Example 79, bis(4-chloro-2-fluorophenyl)borinic acid] | 97 | 97 | 0.88 | 0.88 | –
CN(C)CCOB(c1ccccc1)c1ccc(COCc2ccc(B(OCCN(C)C)c3ccccc3)cc2)cc1 [Example 152, di(4,4′-phenyldimethylaminoethoxyboryl)benzylether] | – | – | – | 1.07 | TGase activity remaining (% of DMSO control = 100) (transglutaminase (TGase); TGase inhibitory activity value, Table 1, listed as 1073): 54; x-Fold ([1]; polyglutamine aggregation inhibitory activity, Table 1, listed as 1073): 1.07
Cc1ccc(B(O)c2ccc(COCc3ccc(B(O)c4ccc(C)c(Cl)c4)cc3)cc2)cc1Cl [Example 144, bis(3-chloro-4-methylphenylhydroxyboryl 4-benzyl)ether] | 99 | – | – | 0.87 | –
NCCOB(c1ccc(F)c(F)c1)c1ccc(F)c(F)c1 [Example 87, 2-aminoethyl bis(3,4-difluorophenyl)borinate] | 91 | 91 | 1.02 | 1.02 | –
Cc1cc(B(O)c2ccc(COCc3ccc(B(O)c4ccc(Cl)c(C)c4)cc3)cc2)ccc1Cl [Example 139, bis(4-chloro-3-methylphenylhydroxyboryl 4-benzyl)ether] | 122 | – | – | 0.88 | TGase activity remaining (% of DMSO control = 100) (transglutaminase (TGase); TGase inhibitory activity value, Table 1, listed as 611): 122; x-Fold ([1]; polyglutamine aggregation inhibitory activity, Table 1, listed as 611): 0.88
OB(c1ccccc1)c1ccccc1B(O)c1ccccc1 [Example 121, 1,2-bis(phenylhydroxyboryl)benzene] | 121 | – | – | 0.94 | TGase activity remaining (% of DMSO control = 100) (transglutaminase (TGase); TGase inhibitory activity value, Table 1, listed as 583): 121; x-Fold ([1]; polyglutamine aggregation inhibitory activity, Table 1, listed as 583): 0.94
CN(C)CCOB(c1cc(F)cc(F)c1)c1cc(F)cc(F)c1 [Example 92, dimethylaminoethyl bis(3,5-difluorophenyl)borinate] | 106 | 106 | 1.00 | 1.00 | –
c1ccc(B2OCCN3CCN(CCOB(c4ccccc4)c4ccc(cc4)Oc4ccc2cc4)CC3)cc1 [Example 196, 4,4′-(phenylpiperazino-O,O-ethoxyboryl)phenylether] | 117 | 117 | 0.90 | 0.90 | –
N#Cc1ccc(B(SCCN)c2ccc(C#N)cc2)cc1 [Example 106, 2-aminoethylthio bis(4-cyanophenyl)borane] | 23 | 23 | 0.92 | 0.92 | –
Cc1cc(B(O)c2ccc(COCc3ccc(B(O)c4ccc(Cl)c(C)c4)cc3)cc2)ccc1Cl [Example 338, bis(4-(4-chloro-3-methyl-phenyl)hydroxyborylbenzyl)ether] | 110 | – | – | 0.83 | TGase activity remaining (% of DMSO control = 100) (transglutaminase (TGase); TGase inhibitory activity value, Table 1, listed as 693): 110; x-Fold ([1]; polyglutamine aggregation inhibitory activity, Table 1, listed as 693): 0.83
NCCOB(c1ccc(F)c(Cl)c1)c1ccc(F)c(Cl)c1 [Example 86, 2-aminoethyl bis(3-chloro-4-fluorophenyl)borinate] | 103 | – | – | 0.99 | TGase activity remaining (% of DMSO control = 100) (transglutaminase (TGase); TGase inhibitory activity value, Table 1, listed as 6015): 103; x-Fold ([1]; polyglutamine aggregation inhibitory activity, Table 1, listed as 6015): 0.99
NC(=O)CC(N)C(=O)OB(c1ccccc1)c1ccccc1 (stereo not drawn) [Example 136, diphenyl(asparaginate-O,N)borane] | 96 | – | – | 0.98 | TGase activity remaining (% of DMSO control = 100) (transglutaminase (TGase); TGase inhibitory activity value, Table 1, listed as 871): 96; x-Fold ([1]; polyglutamine aggregation inhibitory activity, Table 1, listed as 871): 0.98

Second part, led by results:

TGase activity remaining (% of DMSO control = 100) (transglutaminase (TGase); [2]) | TGase activity remaining (% of DMSO control = 100) (transglutaminase (TGase); [3]) | Compound | x-Fold [1, 4] | x-Fold [1, 5] | also measured
83 | 83 | CN(C)CCOB(c1ccccc1)c1ccc(Oc2ccc(B(OCCN(C)C)c3ccc(CO)cc3)cc2)cc1 [Example 392, (4-(phenyl-N,N-dimethylaminoethoxyboryl)phenyl)(4′-(hydroxymethylphenyl-N,N-dimethylaminoethoxyboryl)phenyl)ether] | 0.91 | 0.91 | –
80 | – | c1ccc(B(OCCN2CCCCC2)c2ccc(COCc3ccc(B(OCCN4CCCCC4)c4ccccc4)cc3)cc2)cc1 [Example 459, bis(4,4′-(phenyl-1-piperidylethoxyboryl)benzyl)ether] | – | 1.03 | TGase activity remaining (% of DMSO control = 100) (transglutaminase (TGase); [6]): 80; x-Fold [1, 7]: 1.03
67 | – | OB(c1cccc(Cl)c1)c1cccc(Cl)c1 [Example 241, di(3-chlorophenyl)borinic acid] | – | 1.10 | –
52 | – | CNCCOB(c1ccccc1)c1ccc(COCc2ccc(B(OCCNC)c3ccccc3)cc2)cc1 [Example 400, bis(4,4′-(phenyl-N-methylaminoethoxyboryl)benzyl)ether] | – | 1.01 | TGase activity remaining (% of DMSO control = 100) (transglutaminase (TGase); [6]): 52; x-Fold [1, 7]: 1.01
118 | 118 | Cc1ccc(B(O)c2ccc(Oc3ccc(B(O)c4ccc(C)cc4)cc3)cc2)cc1 [Example 365, 4,4′-(4-methylphenylhydroxyboryl)diphenylether] | 0.91 | 0.91 | –
−1 | – | NCCOB(c1ccc(Oc2ccc(B(OCCN)c3cccc4ccccc34)cc2)cc1)c1cccc2ccccc12 [Example 441, bis(4,4′-(naphthyl-aminoethoxyboryl)phenyl)ether] | – | 0.58 | TGase activity remaining (% of DMSO control = 100) (transglutaminase (TGase); [6]): −1; x-Fold [1, 7]: 0.58
53 | – | NCCNCCOB(c1ccccc1)c1ccc(COCc2ccc(B(OCCNCCN)c3ccccc3)cc2)cc1 [Example 399, bis(4,4′-(phenyl-N-aminoethyl-aminoethoxyboryl)benzyl)ether] | – | 0.96 | TGase activity remaining (% of DMSO control = 100) (transglutaminase (TGase); [6]): 53; x-Fold [1, 7]: 0.96
89 | 89 | O=C(OB(c1ccc(C(F)(F)F)cc1)c1ccc(C(F)(F)F)cc1)c1ccccn1 [Example 284, di(4-trifluoromethylphenyl) (picolinate-O,N)borane] | 1.03 | 1.03 | –
104 | – | NCC(N)C(=O)OB(c1ccccc1)c1ccc(Oc2ccc(B(OC(=O)C(N)CN)c3ccccc3)cc2)cc1 (stereo not drawn) [Example 436, bis(4,4′-(phenyl-2,3-diaminopropionic acid boryl)phenyl)ether] | 0.73 | 0.85 | TGase activity remaining (% of DMSO control = 100) (transglutaminase (TGase); [6]): 104; x-Fold [1, 7]: 0.85
107 | – | c1ccc(B(OCC2CCCN2)c2ccc3sc4ccc(B(OCC5CCCN5)c5ccccc5)cc4c3c2)cc1 (stereo not drawn) [Example 483, 2,8-di(phenyl 2-pyrrolidinomethoxyboryl)dibenzothiophene] | – | 0.73 | TGase activity remaining (% of DMSO control = 100) (transglutaminase (TGase); [6]): 107; x-Fold [1, 7]: 0.73
108 | – | NCCC(N)C(=O)OB(c1ccc(Oc2ccc(B(OC(=O)C(N)CCN)c3cccc4ccccc34)cc2)cc1)c1cccc2ccccc12 (stereo not drawn) [Example 445, bis(4,4′-(naphthyl 2,4-diaminopropionic acid boryl)phenyl)ether] | – | 0.49 | TGase activity remaining (% of DMSO control = 100) (transglutaminase (TGase); [6]): 108; x-Fold [1, 7]: 0.49
112 | 112 | CC(O)C(N)C(=O)OB(c1ccccc1)c1ccccc1 (stereo not drawn) [Example 265, diphenyl(threoninate-O,N)borane] | 0.94 | 0.94 | –
